Assay results reported in paper PMC11375437, “Selective labelling of GBA2 in cells with fluorescent β-D-arabinofuranosyl cyclitol aziridines” (Chemical Science, 2024).

Biological target: T1, rhGBA1 (Homo sapiens, UniProt P04062, R534H)
T1 construct: purchased Sanofi Genzyme (gift) Cerezyme®
T1 sequence (P04062 40-536 R534H): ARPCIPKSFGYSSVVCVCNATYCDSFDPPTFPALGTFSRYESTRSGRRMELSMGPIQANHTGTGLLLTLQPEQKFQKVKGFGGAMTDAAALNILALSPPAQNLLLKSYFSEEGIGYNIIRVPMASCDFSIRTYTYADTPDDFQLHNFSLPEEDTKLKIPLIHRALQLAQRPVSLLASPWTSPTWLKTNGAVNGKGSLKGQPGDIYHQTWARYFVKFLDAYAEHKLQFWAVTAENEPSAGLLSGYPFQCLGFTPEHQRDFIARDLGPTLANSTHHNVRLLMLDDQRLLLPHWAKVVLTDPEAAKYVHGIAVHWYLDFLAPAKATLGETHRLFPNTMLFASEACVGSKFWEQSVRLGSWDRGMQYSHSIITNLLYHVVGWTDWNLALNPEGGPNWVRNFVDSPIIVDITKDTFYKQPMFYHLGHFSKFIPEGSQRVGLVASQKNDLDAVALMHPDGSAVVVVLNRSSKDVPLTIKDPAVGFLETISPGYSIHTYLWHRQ
Assay: Labelling of GBA2 OE lysate spiked with rhGBA1, residual rhGBA1 read out with ABP 10 or 11
Type: biochemical
Conditions: GBA2 OE lysate spiked with 3 ng rhGBA1; 30 min
Method: To this end, lysates of HEK293T cells containing all β-glucosidases (endogenous GBA1 with overexpressed GBA2 and GBA3) were treated with ABPs 3, 4, 5 or 7, followed by protein separation by SDS-PAGE and fluorescence scanning of the wet gel slabs. […] In contrast, the β-D-Araf aziridine ABPs 3 and 4 selectively labelled GBA2 at a concentration of 100 nM, while Cy5 tagged ABP 5 did so at 500 nM. The GBA2 selectivity of β-D-Araf cyclitol aziridines 3, 4 and 5 was confirmed in a mixture of a lysate of overexpressed GBA2 cells spiked with 3 ng rhGBA1 (Fig. 2C and ESI Fig. S3 ^†). […] Therefore, only a combined inactivation rate constant (kinact) and binding constant (KI) ratio (kinact/KI) could be measured. […] Importantly, no labelling of GBA1 or GBA3 was detected under varying pH and time conditions (ESI Fig. S4-2 ^†). […]
2.8 β-Glucosidase inactivation visualized by competitive ABPP with SDS-PAGE In general, samples containing GBA1, GBA2 or GBA3 (see the exact constitution of these samples in the described case) are first incubated (in vitro or in situ) with the inactivator compounds, subsequently, the fluorescent readout ABPs were added and incubated with the mixture to reveal the residual active β-glucosidase enzymes. […]

## COc1ccc(C2=[N+]3C(=C(CCCCc4cn(CCCCCCCCN5[C@@H]6[C@H](CO)[C@@H](O)[C@H](O)[C@@H]65)nn4)c4ccc(-c5ccc(OC)cc5)n4[B-]3(F)F)C=C2)cc1 (some centres unmarked) [ABP 4]
  Concentration at which marginal GBA1 labelling occurs: 10 µM

## CC1=CC(C)=[N+]2C1=C(CCCCc1cn(CCCCCCCCN3[C@@H]4[C@H](CO)[C@@H](O)[C@H](O)[C@@H]43)nn1)c1c(C)cc(C)n1[B-]2(F)F (some centres unmarked) [ABP 3]
  Concentration at which marginal GBA1 labelling occurs: 10 µM
